From patent publication US20170334899A1, “AMINO-SUBSTITUTED ISOTHIAZOLES” (Bayer Pharma Aktiengesellschaft, priority 2014, published 2017)

system: human cervical tumor cell line HeLa (ATCC CCL-2); test: SAC-Formation - Paclitaxel-Induced Assay; assay type: cell-based; settings: Homo sapiens, HeLa, 24 h, HeLa cells, paclitaxel 0.05 μM, test range 0.005 μM-20 μM, read-out: IC50 [mol/l] SAC-Formation - Paclitaxel-Induced Assay
Method in brief: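 Read-out is high-content imaging of anti-phospho-H3 Ser10 (mitosis) and Hoechst 33342 (DNA, cell number), with decreased mitotic fraction marking checkpoint breakthrough. Compounds (0.005–20 μM) and 0.05 μM paclitaxel co-added to overnight-plated HeLa for 24 h at 37° C; four-parameter Hill fit.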

SMILES	IC50 [nM]
Cc1nsc(Nc2cncc(C(F)(F)F)n2)c1C(=O)Nc1ccc(OCCNC(=O)OC(C)(C)C)c(F)c1 [Example 216, tert-butyl [2-(2-fluoro-4-{[(3-methyl-5-{[6-(trifluoromethyl)pyrazin-2-yl]amino}-1,2-thiazol-4-yl)carbonyl]amino}phenoxy)ethyl]carbamate]	140
Cc1nsc(Nc2cnc(C(F)(F)F)cn2)c1C(=O)Nc1ccc(OC2CCN(C(=O)OC(C)(C)C)CC2)c(F)c1 [Example 217, tert-butyl 4-(2-fluoro-4-{[(3-methyl-5-{[5-(trifluoromethyl)pyrazin-2-yl]amino}-1,2-thiazol-4-yl)carbonyl]amino}phenoxy)piperidine-1-carboxylate]	410
Cc1nsc(Nc2cncc(C(F)(F)F)n2)c1C(=O)Nc1ccc(OC2CCN(C(C)C)CC2)nc1 [Example 218, N-{6-[(1-isopropylpiperidin-4-yl)oxy]pyridin-3-yl}-3-methyl-5-{[6-(trifluoromethyl)pyrazin-2-yl]amino}-1,2-thiazole-4-carboxamide]	3900
Cc1nsc(Nc2cncc(C(F)(F)F)n2)c1C(=O)Nc1ccc(OC2CCN(C)CC2)nc1 [Example 219, 3-methyl-N-{6-[(1-methylpiperidin-4-yl)oxy]pyridin-3-yl}-5-{[6-(trifluoromethyl)pyrazin-2-yl]amino}-1,2-thiazole-4-carboxamide]	660
Cc1nsc(Nc2cnc(C(F)(F)F)cn2)c1C(=O)Nc1ccc(OC2CCN(C)CC2)nc1 [Example 220, 3-methyl-N-{6-[(1-methylpiperidin-4-yl)oxy]pyridin-3-yl}-5-{[5-(trifluoromethyl)pyrazin-2-yl]amino}-1,2-thiazole-4-carboxamide]	970
Cc1nsc(Nc2cnc(C(F)(F)F)cn2)c1C(=O)Nc1ccc(OCCN)c(F)c1 [Example 221, 3-N-[4-(2-aminoethoxy)-3-fluorophenyl]-3-methyl-5-{[5-(trifluoromethyl)pyrazin-2-yl]amino}-1,2-thiazole-4-carboxamide]	500
Cc1nsc(Nc2cncc(C(F)(F)F)n2)c1C(=O)Nc1ccc(C(=O)NC2CCN(C(=O)OC(C)(C)C)CC2)cc1 [Example 222, tert-butyl 4-[(4-{[(3-methyl-5-{[6-(trifluoromethyl)pyrazin-2-yl]amino}-1,2-thiazol-4-yl)carbonyl]amino}benzoyl)amino] piperidine-1-carboxylate]	820
Cc1nsc(Nc2cncc(C(F)(F)F)n2)c1C(=O)Nc1ccc(OC2CCN(CCF)CC2)c(F)c1 [Example 223, N-(3-fluoro-4-{[1-(2-fluoroethyl)piperidin-4-yl]oxy}phenyl)-3-methyl-5-{[6-(trifluoromethyl)pyrazin-2-yl]amino}-1,2-thiazole-4-carboxamide]	110
Cc1nsc(Nc2cncc(C(F)(F)F)n2)c1C(=O)Nc1ccc(OC2CCN(CC(F)F)CC2)c(F)c1 [Example 224, N-(4-{[1-(2,2-difluoroethyl)piperidin-4-yl]oxy}-3-fluorophenyl)-3-methyl-5-{[6-(trifluoromethyl)pyrazin-2-yl]amino}-1,2-thiazole-4-carboxamide]	180
Cc1nsc(Nc2cncc(C(F)(F)F)n2)c1C(=O)Nc1ccc(C(=O)NC2CCN(CC(F)F)CC2)cc1 [Example 225, N-N-(4-{[1-(2,2-difluoroethyl)piperidin-4-yl]carbamoyl}phenyl)-3-methyl-5-{[6-(trifluoromethyl)pyrazin-2-yl]amino}-1,2-thiazole-4-carboxamide]	570
Cc1nsc(Nc2cncc(C(F)(F)F)n2)c1C(=O)Nc1ccc(OCC2CCN(C(=O)OC(C)(C)C)CC2)nc1 [Example 226, tert-butyl 4-{[(5-{[(3-methyl-5-{[6-(trifluoromethyl)pyrazin-2-yl]amino}-1,2-thiazol-4-yl)carbonyl]amino}pyridin-2-yl)oxy]methyl}piperidine-1-carboxylate]	210
Cc1nsc(Nc2cnc(C(F)(F)F)cn2)c1C(=O)Nc1ccc(OCC2CCN(C(=O)OC(C)(C)C)CC2)nc1 [Example 227, tert-butyl 4-{[(5-{[(3-methyl-5-{[5-(trifluoromethyl)pyrazin-2-yl]amino}-1,2-thiazol-4-yl)carbonyl]amino}pyridin-2-yl)oxy]methyl}piperidine-1-carboxylate]	300
Cc1nsc(Nc2cnc(C(F)(F)F)cn2)c1C(=O)Nc1ccc(OCC2CCCN(C(=O)OC(C)(C)C)C2)nc1 (stereo not drawn) [Example 228, tert-butyl 3-{[(5-{[(3-methyl-5-{[5-(trifluoromethyl)pyrazin-2-yl]amino}-1,2-thiazol-4-yl)carbonyl]amino}pyridin-2-yl)oxy]methyl}piperidine-1-carboxylate]	48
Cc1nsc(Nc2cnc(C(F)(F)F)cn2)c1C(=O)Nc1ccc(F)c(OC2CCN(C(=O)OC(C)(C)C)CC2)c1 [Example 229, tert-butyl 4-(2-fluoro-5-{[(3-methyl-5-{[5-(trifluoromethyl)pyrazin-2-yl]amino}-1,2-thiazol-4-yl)carbonyl]amino}phenoxy)piperidine-1-carboxylate]	360
Cc1nsc(Nc2cc(C#N)ccn2)c1C(=O)Nc1ccc(Oc2cccc(C(F)(F)F)c2)nc1 [Example 230, 5-[(4-cyanopyridin-2-yl)amino]-3-methyl-N-{6-[3-(trifluoromethyl)phenoxy]pyridin-3-yl}-1,2-thiazole-4-carboxamide]	82
Cc1nsc(Nc2cnc3ccccc3n2)c1C(=O)Nc1ccc(Oc2cccnc2)nc1 [Example 231, 3-methyl-N-[6-(pyridin-3-yloxy)pyridin-3-yl]-5-(quinoxalin-2-ylamino)-1,2-thiazole-4-carboxamide]	260
Cc1nsc(Nc2cnc3ccccc3n2)c1C(=O)Nc1ccc(Oc2ccc(SC(F)(F)F)cc2)nc1 [Example 233, 3-methyl-5-(quinoxalin-2-ylamino)-N-(6-{4-[(trifluoromethyl)sulfanyl]phenoxy}pyridin-3-yl)-1,2-thiazole-4-carboxamide]	4100
Cc1nsc(Nc2cnc3ccccc3n2)c1C(=O)Nc1ccc(NC2CCN(C(=O)OC(C)(C)C)CC2)nc1 [Example 234, tert-butyl 4-{[5-({[3-methyl-5-(quinoxalin-2-ylamino)-1,2-thiazol-4-yl]carbonyl}amino)pyridin-2-yl]amino}piperidine-1-carboxylate]	10000
COc1ccc(NC(=O)c2c(C)nsc2Nc2cnc3ccccc3n2)c(CC#N)n1 [Example 235, N-[2-(cyanomethyl)-6-methoxypyridin-3-yl]-3-methyl-5-(quinoxalin-2-ylamino)-1,2-thiazole-4-carboxamide]	1500
Cc1nsc(Nc2cnc3ccccc3n2)c1C(=O)Nc1ccc(NCCC(=O)OC(C)(C)C)nc1 [Example 236, tert-butyl N-[5-({[3-methyl-5-(quinoxalin-2-ylamino)-1,2-thiazol-4-yl]carbonyl}amino)pyridin-2-yl]-beta-alaninate]	20000
COC(=O)c1cc(NC(=O)c2c(C)nsc2Nc2cnc3ccccc3n2)cc(C(=O)OC)c1 [Example 237, dimethyl 5-({[3-methyl-5-(quinoxalin-2-ylamino)-1,2-thiazol-4-yl]carbonyl}amino)isophthalate]	20000
Cc1nsc(Nc2cnc3ccccc3n2)c1C(=O)Nc1ccc(NCC2CCN(C(=O)OC(C)(C)C)CC2)nc1 [Example 238, tert-butyl 4-({[5-({[3-methyl-5-(quinoxalin-2-ylamino)-1,2-thiazol-4-yl]carbonyl}amino)pyridin-2-yl]amino}methyl)piperidine-1-carboxylate]	9700
Cc1nsc(Nc2cc(C#N)ccn2)c1C(=O)Nc1cccc(C(=O)OC(C)(C)C)c1 [Example 239, tert-butyl 3-[({5-[(4-cyanopyridin-2-yl)amino]-3-methyl-1,2-thiazol-4-yl}carbonyl)amino]benzoate]	630
Cc1nsc(Nc2ccc(C#N)cn2)c1C(=O)Nc1cccc(C(=O)OC(C)(C)C)c1 [Example 240, tert-butyl 3-[({5-[(5-cyanopyridin-2-yl)amino]-3-methyl-1,2-thiazol-4-yl}carbonyl)amino]benzoate]	70
Cc1nsc(Nc2cnc3ccccc3n2)c1C(=O)Nc1ccc(NC2CCCN(C(=O)OC(C)(C)C)C2)nc1 (stereo not drawn) [Example 241, tert-butyl 3-{[5-({[3-methyl-5-(quinoxalin-2-ylamino)-1,2-thiazol-4-yl]carbonyl}amino)pyridin-2-yl]amino}piperidine-1-carboxylate]	2300
Cc1nsc(Nc2cc(C#N)ccn2)c1C(=O)Nc1ccc(NC2CCCNC2)nc1 (stereo not drawn) [Example 242, 5-[(4-cyanopyridin-2-yl)amino]-3-methyl-N-[6-(piperidin-3-ylamino)pyridin-3-yl]-1,2-thiazole-4-carboxamide]	3300
Cc1cc(C)n(-c2ccccc2NC(=O)c2c(C)nsc2Nc2cnc3ccccc3n2)n1 [Example 243, N-[2-(3,5-dimethyl-1H-pyrazol-1-yl)phenyl]-3-methyl-5-(quinoxalin-2-ylamino)-1,2-thiazole-4-carboxamide]	6500
Cc1nsc(Nc2cnc3ccccc3n2)c1C(=O)Nc1ccc(NCCNC(=O)OC(C)(C)C)nc1 [Example 244, tert-butyl (2-{[5-({[3-methyl-5-(quinoxalin-2-ylamino)-1,2-thiazol-4-yl]carbonyl}amino)pyridin-2-yl]amino}ethyl)carbamate]	3900
Cc1nsc(Nc2cnc3ccccc3n2)c1C(=O)Nc1ccc(Nc2ccc(F)c(F)c2)nc1 [Example 245, N-{6-[(3,4-difluorophenyl)amino]pyridin-3-yl}-3-methyl-5-(quinoxalin-2-ylamino)-1,2-thiazole-4-carboxamide]	1700
Cc1nsc(Nc2ccc(C#N)cn2)c1C(=O)Nc1ccc(S(C)(=O)=O)cc1 [Example 246, 5-[(5-cyanopyridin-2-yl)amino]-3-methyl-N-[4-(methylsulfonyl)phenyl]-1,2-thiazole-4-carboxamide]	77
